Laboratory results as given in patent US20110319392A1, “Thiazole Sulfonamide And Oxazole Sulfonamide Kinase Inhibitors” (priority 2009, published 2011).
Structures can show the parent of a compound that is named as a salt.

How the values were obtained:
[1] = target: T1, EGFR (Homo sapiens, UniProt P00533); assay: EGFR substrate phosphorylation assay (HTRF); format: biochemical
T1 construct: made in house; host or cells: baculovirus expression system
In short: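 Baculovirus-expressed EGFR (0.8 nM) or ErbB2 (10 nM) in enzyme mix, preincubated 1 h at 20 °C with compound (0.00027–47.6 μM final), then 90 min at 20 °C with substrate mix of 20 μM ATP, 0.8 uM biotinylated Peptide C, MnCl2, MOPS pH 7.5. Phosphotyrosine by HTRF; pIC50 reported.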

[2] = tested on: HN5 tumor cells; assay: Cell growth inhibition assay (CellTiter-Glo), HN5; format: cell-based, Human; conditions: 3 days incubation
Experimental: (§1) Human breast tumor cells (BT474) were cultured in RPMI (Mediatech […]), containing 10% FBS (JRH Biosciences 12176) and 1% penicillin-streptomycin (Invitrogen 15140). Human head and neck tumor cells (HN5) were cultured in high glucose DMEM (Mediatech 50-013-PB) containing 10% FBS and 1% penicillin-streptomycin. Human colon tumor cells (Colo205) were cultured in RPMI (Mediatech 50-020-PB) containing 10% FBS and 1% penicillin-streptomycin. Human melanoma cancer cells (SK-MEL-28) were cultured in EMEM with nonessential amino acids (Mediatech 50-011-PB) containing 10% FBS, 1% sodium pyruvate (JT Baker 3354-04), and 1% penicillin-streptomycin. Human melanoma cancer cells (A375P F11s) were cultured in RPMI (Mediatech 50-020-PB) containing 10% FBS, 1% sodium pyruvate, and 1% penicillin-streptomycin. Human colon cancer cells (HT-29) were cultured in high glucose DMEM (Mediatech 50-013-PB) containing 10% FBS and 1% penicillin-streptomycin. Human melanoma cancer cells (SK-MEL-3) were cultured in McCoy's 5A (50-025-PB) containing 15% FBS, and 1% penicillin-streptomycin. All cell lines were maintained at 37° C. in a humidified 5% CO2, 95% air incubator. Cells were harvested using trypsin/EDTA (Invitrogen 25200), counted using a haemocytometer, and plated. For 96-well assays (using white full-area NUNC plates cat. #136102), cells were plated in 105 μL at the following densities (cells/well): HNS, 500; Colo 205, 500; SK-MEL-28, 500; A375P F11s, 500; HT-29, 500; SK-MEL-3, 500; and BT474, 3000. For 384-well assays (white full-area NUNC plates, cat. #781080), cells were plated in 48 μL at the following densities (cells/well): HNS, 500; Colo205, 500; SK-MEL-28, 500; A375P F11s, 500; HT-29, 500; SK-MEL-3, 500; and BT474, 2000.
(§2) The next day, compounds were diluted as follow: For 96-well assays, 13.5 μL of compound in DMSO were diluted using nine (9) serial 1:3 dilutions of 4.5 μL in 9 of DMSO. Medium (270 μL/well of RPMI with 10% FBS and 1% penicillin-streptomycin) was added to the plates. Aliquots (7 μL) were added to cells in the final assay giving a final DMSO concentration of 0.2%. For 384-well assays, 15 μL of compound in DMSO were diluted using nine (9) serial 1:3 dilutions of 5 μL in 10 μL of DMSO, followed by a further dilution of 5 μL of compound with 95 μL of medium, of which 2 μL were added to cells in the final assay giving a final DMSO concentration of 0.2%. Cells were incubated at 37° C., 5% CO2 for 3 days.
(§3) Total ATP was measured (as a surrogate estimate of cell number) using CellTiter-Glo® reagent (Promega G7571). Briefly, plates were removed from the incubator and allowed to equilibrate to room temperature for 30 minutes. CellTiter-Glo® (25 μL or 55 μL for 384-well or 96-well assays, respectively) reagent was added to each well and plates were shaken on an orbital plate shaker for 2 minutes. Plates were incubated without shaking for a further 30 minutes and read on an LJL Analyst GT reader in luminometer mode with an integration time of 0.5 seconds per well. Percent inhibition of cell growth was calculated relative to DMSO vehicle-treated control wells. Concentration of compound required to give 50% inhibition of vehicle-treated control cell growth (IC50) was interpolated using a 4-parameter fit for determining IC50 using the following equation: Y=A +((B−A)/(1+((C/X)̂D))) where […].

[3] = tested on: SK-MEL-28 tumor cells; assay: Cell growth inhibition assay (CellTiter-Glo), SK-MEL-28; format: cell-based, Human; conditions: Homo sapiens, SK-MEL-28, 72 h; 3 days incubation
In short: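 Cells plated at 500 cells/well in their growth media, dosed next day with nine-step 1:3 compound dilutions (final DMSO 0.2%), then incubated 3 days at 37° C, 5% CO2. Total ATP read by CellTiter-Glo luminescence as a surrogate for cell number; IC50 interpolated from 4-parameter fit versus DMSO controls.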

[4] = tested on: HT-29 tumor cells; assay: Cell growth inhibition assay (CellTiter-Glo), HT-29; format: cell-based, Human; conditions: for IC50: Homo sapiens
Experimental: as §1, §2, §3

T1 sequence (P00533 25-1210): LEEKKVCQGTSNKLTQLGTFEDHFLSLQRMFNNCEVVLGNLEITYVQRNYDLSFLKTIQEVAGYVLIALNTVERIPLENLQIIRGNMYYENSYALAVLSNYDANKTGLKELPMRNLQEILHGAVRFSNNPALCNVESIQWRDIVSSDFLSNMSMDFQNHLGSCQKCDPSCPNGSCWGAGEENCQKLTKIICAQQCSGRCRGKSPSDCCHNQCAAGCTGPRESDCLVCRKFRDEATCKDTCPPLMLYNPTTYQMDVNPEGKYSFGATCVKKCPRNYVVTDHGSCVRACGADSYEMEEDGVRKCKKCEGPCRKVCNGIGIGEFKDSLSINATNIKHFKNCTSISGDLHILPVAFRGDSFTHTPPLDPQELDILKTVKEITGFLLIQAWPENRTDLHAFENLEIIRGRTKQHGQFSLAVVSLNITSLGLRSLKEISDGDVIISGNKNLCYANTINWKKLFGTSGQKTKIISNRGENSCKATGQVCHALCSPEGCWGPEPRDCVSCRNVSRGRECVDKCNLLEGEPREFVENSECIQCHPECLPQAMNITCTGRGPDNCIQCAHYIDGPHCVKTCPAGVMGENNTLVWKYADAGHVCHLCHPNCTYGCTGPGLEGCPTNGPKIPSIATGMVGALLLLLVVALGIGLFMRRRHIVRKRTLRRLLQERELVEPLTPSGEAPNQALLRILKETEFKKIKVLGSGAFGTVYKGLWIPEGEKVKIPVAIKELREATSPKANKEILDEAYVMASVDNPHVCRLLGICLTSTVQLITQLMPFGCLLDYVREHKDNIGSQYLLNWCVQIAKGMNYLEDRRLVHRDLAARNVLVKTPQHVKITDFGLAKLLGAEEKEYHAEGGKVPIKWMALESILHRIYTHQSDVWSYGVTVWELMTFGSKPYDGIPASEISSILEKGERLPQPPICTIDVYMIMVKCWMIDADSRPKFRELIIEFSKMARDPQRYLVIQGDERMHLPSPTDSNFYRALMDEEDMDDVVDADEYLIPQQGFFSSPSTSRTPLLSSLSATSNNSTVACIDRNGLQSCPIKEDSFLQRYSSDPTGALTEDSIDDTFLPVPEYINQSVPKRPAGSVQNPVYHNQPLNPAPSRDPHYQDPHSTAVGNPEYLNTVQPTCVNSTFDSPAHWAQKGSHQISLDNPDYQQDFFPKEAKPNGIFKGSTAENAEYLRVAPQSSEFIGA

IC50 [1] [nM] | IC50 [2] [nM] | IC50 [3] [nM] | IC50 ([2]; Homo sapiens, 72 h) [nM] | IC50 [4] [nM] | SMILES | Activity in HT-29 Tumor Cells [4]
< 100 | 100 to 1000 | 100 to 1000 |  |  | CCNc1nc(-c2cccc(NS(=O)(=O)c3ccccc3)c2)c(-c2ccnc(Nc3ccc(OCCN4CCCC4)c(F)c3)n2)s1 [Example 1, N-(3-(2-(Ethylamino)-5-{2-[(3-fluoro-4-[[2-(1-pyrrolidinyl)ethyl]oxy}phenyl)amino]-4-pyrimidinyl}-1,3-thiazol-4-yl)phenyl]benzenesulfonamide] | ++ (activity of between 100 nM and 1 μM in HT-29 tumor cells)
> 1000 |  | < 100 | > 1000 | 100 to 1000 | CC(=O)N1CCN(c2ccc(Nc3nccc(-c4sc(C(C)C)nc4-c4cccc(NS(=O)(=O)c5ccc(F)cc5)c4)n3)cn2)CC1 [Example 10, N-{3-[5-(2-{[6-(4-Acetyl-1-piperazinyl)-3-pyridinyl]amino}-4-pyrimidinyl)-2-(1-methylethyl)-1,3-thiazol-4-yl]phenyl}-4-fluorobenzenesulfonamide] | 
< 100 |  | < 100 | 100 to 1000 | < 100 | CC(=O)N1CCN(c2ccc(Nc3nccc(-c4sc(C(C)C)nc4-c4cccc(NS(=O)(=O)c5ccccc5F)c4)n3)cn2)CC1 [Example 12, N-{3-[5-(2-{[6-(4-Acetyl-1-piperazinyl)-3-pyridinyl]amino}-4-pyrimidinyl)-2-(1-methylethyl)-1,3-thiazol-4-yl]phenyl}-2-fluorobenzenesulfonamide] | 
100 to 1000 |  | < 100 | 100 to 1000 | 100 to 1000 | CC(C)c1nc(-c2cccc(NS(=O)(=O)c3c(F)cccc3F)c2)c(-c2ccnc(Nc3ccc(OC4CCN(CCS(C)(=O)=O)CC4)c(F)c3)n2)s1 [Example 13, 2,6-Difluoro-N-{3-[5-(2-{[3-fluoro-4-({1-[2-(methylsulfonyl)ethyl]-4-piperidinyl}oxy)phenyl]amino}-4-pyrimidinyl)-2-(1-methylethyl)-1,3-thiazol-4-yl]phenyl}benzenesulfonamide hydrochloride] | 
100 to 1000 |  | < 100 | > 1000 | 100 to 1000 | CC(C)c1nc(-c2cccc(NS(=O)(=O)c3c(F)cccc3F)c2)c(-c2ccnc(Nc3ccc(N4CCOCC4)c(C(=O)O)c3)n2)s1 [Example 14, 5-({4-[4-(3-{[(2,6-Difluorophenyl)sulfonyl]amino}phenyl)-2-(1-methylethyl)-1,3-thiazol-5-yl]-2-pyrimidinyl}amino)-2-(4-morpholinyl)benzoic acid] | 
< 100 |  | < 100 | 100 to 1000 | < 100 | COc1ccc(Nc2nccc(-c3sc(C(C)C)nc3-c3cccc(NS(=O)(=O)c4c(F)cccc4F)c3)n2)cc1N(C)C [Example 18, N-{3-[5-(2-{[3-(Dimethylamino)-4-(methyloxy)phenyl]amino}-4-pyrimidinyl)-2-(1-methylethyl)-1,3-thiazol-4-yl]phenyl}-2,6-difluorobenzenesulfonamide trifluoroacetate] | 
< 100 |  | 100 to 1000 | > 1000 | > 1000 | COc1cc(N2CCN(CCS(C)(=O)=O)CC2)c(C)cc1Nc1nccc(-c2sc(C(C)C)nc2-c2cccc(NS(=O)(=O)c3c(F)cccc3F)c2)n1 [Example 19] | 

The remaining lines, values behind:

SMILES | IC50 [1] [nM] | IC50 [2] [nM] | IC50 [3] [nM] | IC50 ([2]; Homo sapiens, 72 h) [nM] | IC50 [4] [nM] | Activity in HT-29 Tumor Cells [4]
COCCN1CCN(c2ccc(Nc3nccc(-c4sc(C(C)C)nc4-c4cccc(NS(=O)(=O)c5ccccc5)c4)n3)cn2)CC1 [Example 6, N-[3-(2-(1-Methylethyl)-5-{2-[(6-{4-[2-(methyloxy)ethyl]-1-piperazinyl}-3-pyridinyl)amino]-4-pyrimidinyl}-1,3-thiazol-4-yl)phenyl]benzenesulfonamide] | > 1000 |  | < 100 | 100 to 1000 | < 100 | 
CC(C)c1nc(-c2cccc(NS(=O)(=O)c3ccccc3)c2)c(-c2ccnc(Nc3ccc(N4CCOCC4)nc3)n2)s1 [Example 8, N-{3-[2-(1-Methylethyl)-5-(2-{[6-(4-morpholinyl)-3-pyridinyl]amino}-4-pyrimidinyl)-1,3-thiazol-4-yl]phenyl}benzenesulfonamide hydrochloride] | 100 to 1000 |  | < 100 | > 1000 | 100 to 1000 | 
COc1ccc(Nc2nccc(-c3sc(C(C)C)nc3-c3cccc(NS(=O)(=O)c4ccccc4)c3)n2)cc1N1CCN(CCC#N)CC1 [Example 9, N-{3-[5-(2-{[3-[4-(2-Cyanoethyl)-1-piperazinyl]-4-(methyloxy)phenyl]amino}-4-pyrimidinyl)-2-(1-methylethyl)-1,3-thiazol-4-yl]phenyl}benzenesulfonamide] | < 100 |  | < 100 | 100 to 1000 | 100 to 1000 | 
CC(=O)N1CCN(c2ccc(Nc3nccc(-c4sc(C(C)C)nc4-c4cccc(NS(=O)(=O)c5cccc(F)c5)c4)n3)cn2)CC1 [Example 11, N-{3-[5-(2-{[6-(4-Acetyl-1-piperazinyl)-3-pyridinyl]amino}-4-pyrimidinyl)-2-(1-methylethyl)-1,3-thiazol-4-yl]phenyl}-3-fluorobenzenesulfonamide] | 100 to 1000 |  | < 100 | > 1000 | < 100 | 
CC(C)c1nc(-c2cccc(NS(=O)(=O)c3c(F)cccc3F)c2)c(-c2ccnc(Nc3ccc(N4CCN5CCOC[C@H]5C4)nc3)n2)s1 [Example 15] | 100 to 1000 |  | < 100 | 100 to 1000 | < 100 | 
CC(C)c1nc(-c2cccc(NS(=O)(=O)c3c(F)cccc3F)c2)c(-c2ccnc(Nc3ccc(N4CCN(CCS(C)(=O)=O)CC4)c(F)c3)n2)s1 [Example 16, 2,6-Difluoro-N-{3-[5-{2-[(3-fluoro-4-{4-[2-(methylsulfonyl)ethyl]-1-piperazinyl}phenyl)amino]-4-pyrimidinyl}-2-(1-methylethyl)-1,3-thiazol-4-yl]ohenyl}benzenesulfonamide hydrochloride] | 100 to 1000 |  | < 100 | 100 to 1000 | < 100 | 
CC(C)c1nc(-c2cccc(NS(=O)(=O)c3c(F)cccc3F)c2)c(-c2ccnc(Nc3ccc(N4CCOCC4)nc3)n2)s1 [Example 17, 2,6-Difluoro-N-{3-[2-(1-methylethyl)-5-(2-{[6-(4-morpholinyl)-3-pyridinyl]amino}-4-pyrimidinyl)-1,3-thiazol-4-yl]phenyl}benzenesulfonamide] | 100 to 1000 |  | < 100 | 100 to 1000 | < 100 | 
COc1cc(N2CCC(N3CCN(CCS(C)(=O)=O)CC3)CC2)ccc1Nc1nccc(-c2sc(C(C)C)nc2-c2cccc(NS(=O)(=O)c3c(F)cccc3F)c2)n1 [Example 20, 2,6-Difluoro-N-{3-[2-(1-methylethyl)-5-(2-{[2-(methyloxy)-4-(4-{4-[2-(methylsulfonyl)ethyl]-1-piperazinyl}-1-piperidinyl)phenyl]amino}-4-pyrimidinyl)-1,3-thiazol-4-yl]phenyl}benzenesulfonamide] | < 100 |  | < 100 | > 1000 | > 1000 | 
